Broadly, the IC50 is the concentration needed to halve the response being measured. In general, melting point refers to the temperature of the solid-liquid transition.

Bounds are passed on as bounds.

Our source for the IC50, remaining activity and melting point values is paper PMC11085872, “Structure-Based Design of Novel Thiazolone[3,2-a]pyrimidine Derivatives as Potent RNase H Inhibitors for HIV Therapy” (Molecules, 2024).

In series [1] the target is T1, HIV-1 RT-associated RNase H (Human immunodeficiency virus type 1 group M subtype B, UniProt P03366).
T1 construct: His-tagged p66/p51 HIV-1 RT group M subtype B; His tag; made in house; host or cells: Escherichia coli strain M15 (plasmid p6HRT-prot)
The experiment in a line: RNase H polymerase-independent cleavage assay. It counts as biochemical. The conditions noted are these: for IC50: IC50, compound concentration required to reduce HIV-1 RT-associated RNase H activity by 50%, recombinant HIV-1 wt RT, hybrid RNA/DNA substrate, 37 °C, 1 hour; for remaining activity at 100 µM: read-out: Percentage of the control activity measured at the indicated compound concentration. The procedure: The Ar^1 and Ar^2 aromatic segments of the molecule also approach the protein surface, through hydrophobic interactions. These findings provide important information for further structural optimization. All these newly designed thiazolone[3,2-a]pyrimidine derivatives were evaluated for their inhibitory activity against HIV RT-associated RNase H, using the diketo acid RDS1643 as positive control. […] The decrease in activity observed in compounds containing a sulfonic acid group might be attributed to the excessively strong acidity of the sulfonic acid group, which could protonate the diazo group within the molecule. […] When Ar^2 was changed from a phenyl group to a naphthyl group, the activity of compound 10f gained a great improvement over that of compound 10k. […] And when a negatively charged polar group was present at the 2-position of Ar^2, the inhibitory activity is enhanced. […]
3. Biology Experimental section
3.1 Expression and purification of recombinant HIV-1 RTs.
His-tagged p66/p51 HIV-1 RT group M subtype B coded in a p6HRT-prot plasmid was expressed in the Escherichia coli strain M15.1 Heterodimeric RTs were expressed essentially and purified as described.2 E. coli cells harboring the expression vector were cultured until reaching an optical density at 600 nm of 0.7. Induction of protein expression was achieved by treating the cells with 1.7 mM isopropyl β-D-1-thiogalactopyranoside (IPTG) for a duration of 4 hours. The subsequent purification of the protein was performed using a BioLogic LP system (BioRad) employing a combination of immobilized metal affinity chromatography and ion exchange […]
To initiate the purification process, the cell pellets were resuspended in lysis buffer at a ratio of 1:2 (cell pellet volume: lysis buffer volume). The lysis buffer used consisted of 50 mM sodium phosphate buffer with a pH of 7.8, supplemented with 0.5 mg/ml lysozyme. The resuspended cells were incubated on ice for 20 minutes. Following this, NaCl was added to achieve a final concentration of 0.3 M. The cells were then subjected to sonication, with four cycles of 60 seconds each, alternating between one second on and one second off. Subsequently, the cell lysate was centrifuged at 30, 000×g for 1 […]
The supernatant obtained from the centrifugation step was loaded onto a Ni2+-NTA-Sepharose column that had been pre-equilibrated with a loading buffer consisting of 50 mM sodium phosphate buffer (pH 7.8), 0.3 M NaCl, 10% glycerol, and 10 mM imidazole. The column was washed with a buffer containing 50 mM sodium phosphate buffer (pH 6.0), 0.3 M NaCl, 10% glycerol, and 80 mM imidazole. The target protein, RT, was eluted using an imidazole gradient ranging from 0.08 M to 0.5 M in the wash buffer. Fractions containing the enzyme were collected and combined, and then diluted 1:1 with 50 mM sodium phosphate buffer (pH 7.0) containing 10% glycerol. The diluted protein sample was loaded onto a Hi-trap heparin HP column that had been pre-equilibrated with 10 column volumes of a loading buffer consisting of 50 mM sodium phosphate buffer (pH 7.0), 10% glycerol, and 150 mM NaCl. The column was washed with the loading buffer, and the RT enzyme was eluted using Elute Buffer 2, which
(1 picture or pasted object on this page, not shown here) […]
comprised 50 mM sodium phosphate buffer (pH 7.0), 10% glycerol, and 1 M NaCl.
The eluted fractions containing the purified protein were collected, and the protein was subsequently dialyzed and stored in a buffer composed of 50 mM Tris-HCl (pH 7.0), 25 mM NaCl, 1 mM EDTA, and 50% glycerol. The catalytic activities of the purified protein samples were determined, and aliquots were stored at -80 °C for further use.
3.2 RNase H Polymerase-Independent Cleavage Assay
The HIV-1 RT-associated RNase H activity was measured as described.3 In summary, the reaction was performed in a black 96-well plate with a total volume of 100 μL. The reaction mix consisted of 50 mM Tris HCl (pH 7.8), 6 mM MgCl2, 1 mM dithiothreitol […]

On to `COC(=O)C1=C(C)N=C2SC(=NNc3ccc(OC)cc3S(=O)(=O)O)C(=O)N2C1c1ccc(OC)c(OC)c1OC` (stereo not shown) [Compound 11f, 5-Methoxy-2-(2-(6-(methoxycarbonyl)-7-methyl-3-oxo-5-(2,3,4-trimethoxyphenyl)-5H-thiazolo[3,2-a]pyrimidin-2(3H)-ylidene)hydrazineyl)benzenesulfonic acid], for which the melting point is 244 to 246 °C. In addition, in series [1], the IC50 is over 100 µM and the remaining activity at 100 µM was 61%.
Regarding `COC(=O)C1=C(C)N=C2SC(=NNc3ccccc3C(=O)OC)C(=O)N2C1c1ccc(OC)c(OC)c1OC` (stereo not shown) [Compound 11h, Methyl 2-(2-(2-(methoxycarbonyl)phenyl)hydrazineylidene)-7-methyl-3-oxo-5-(2,3,4-trimethoxyphenyl)-2,3-dihydro-5H-thiazolo[3,2-a]pyrimidine-6-carboxylate], the melting point was 200 to 202 °C. Also, in series [1], the IC50 turned out to be 10 ± 0.95 µM.
With `COC(=O)C1=C(C)N=C2SC(=NNc3ccccc3C(C)=O)C(=O)N2C1c1ccc(OC)c(OC)c1OC` (stereo not shown) [Compound 11i, Methyl 2-(2-(2-acetylphenyl)hydrazineylidene)-7-methyl-3-oxo-5-(2,3,4-trimethoxyphenyl)-2,3-dihydro-5H-thiazolo[3,2-a]pyrimidine-6-carboxylate], the melting point was in the range of 205 to 208 °C. In addition, in series [1], the IC50 was over 100 µM and the remaining activity at 100 µM is 100%.
`COC(=O)C1=C(C)N=C2SC(=NNc3cccc(C(=O)OC)c3)C(=O)N2C1c1ccc(OC)c(OC)c1OC` (stereo not shown) [Compound 11j, Methyl 2-(2-(3-(methoxycarbonyl)phenyl)hydrazineylidene)-7-methyl-3-oxo-5-(2,3,4-trimethoxyphenyl)-2,3-dihydro-5H-thiazolo[3,2-a]pyrimidine-6-carboxylate] showed a melting point of 213 to 215 °C. Also, in series [1], the IC50 was 42.1 ± 9.78 µM.
Regarding `COC(=O)C1=C(C)N=C2SC(=NNc3cccc(C(C)=O)c3)C(=O)N2C1c1ccc(OC)c(OC)c1OC` (stereo not shown) [Compound 11k, Methyl 2-(2-(3-acetylphenyl)hydrazineylidene)-7-methyl-3-oxo-5-(2,3,4-trimethoxyphenyl)-2,3-dihydro-5H-thiazolo[3,2-a]pyrimidine-6-carboxylate], the melting point was 216 to 219 °C. Also, in series [1], the IC50 came to 22 ± 0.36 µM.
The matching figures for `COC(=O)C1=C(C)N=C2SC(=NNc3ccccc3C(C)=O)C(=O)N2C1c1ccc(OC)cc1` (stereo not shown) [Compound 12a, Methyl 2-(2-(2-acetylphenyl)hydrazineylidene)-5-(4-methoxyphenyl)-7-methyl-3-oxo-2,3-dihydro-5H-thiazolo[3,2-a]pyrimidine-6-carboxylate]: 199 to 201 °C and 3.98 ± 0.3 µM.
Take `COC(=O)C1=C(C)N=C2SC(=NNc3ccccc3C(=O)OC)C(=O)N2C1c1ccc(OC)cc1` (stereo not shown) [Compound 12b, Methyl 2-(2-(2-(methoxycarbonyl)phenyl)hydrazineylidene)-5-(4-methoxyphenyl)-7-methyl-3-oxo-2,3-dihydro-5H-thiazolo[3,2-a]pyrimidine-6-carboxylate]: the melting point was in the range of 219 to 221 °C. Besides, the IC50 in series [1] was determined as 2.97 ± 0.88 µM.
For `COC(=O)C1=C(C)N=C2SC(=NNc3cccc(C(=O)OC)c3)C(=O)N2C1c1ccc(OC)cc1` (stereo not shown) [Compound 12c, Methyl 2-(2-(3-(methoxycarbonyl)phenyl)hydrazineylidene)-5-(4-methoxyphenyl)-7-methyl-3-oxo-2,3-dihydro-5H-thiazolo[3,2-a]pyrimidine-6-carboxylate], in that order: 209 to 211 °C and 4.71 ± 0.86 µM.
The matching figures for `COC(=O)C1=C(C)N=C2SC(=NNc3cc(OC)c(OC)c(OC)c3)C(=O)N2C1c1ccc(OC)cc1` (stereo not shown) [Compound 12e, Methyl 5-(4-methoxyphenyl)-7-methyl-3-oxo-2-(2-(3,4,5-trimethoxyphenyl)hydrazineylidene)-2,3-dihydro-5H-thiazolo[3,2-a]pyrimidine-6-carboxylate]: 204 to 206 °C and 8.99 ± 0.27 µM.
The matching figures for `COC(=O)C1=C(C)N=C2S/C(=N\Nc3ccc4ccccc4c3S(=O)(=O)O)C(=O)N2C1c1ccc(OC)cc1` (stereo not shown) [Compound 12f]: 271 to 273 °C and 3.28 µM.
